Structures can show the parent of a compound that is named as a salt.
Legend:
[1] = test system: Parkinson's disease mouse MPTP model; experiment: Rotarod test (latency to fall), 5 weeks; format: in vivo; conditions: MPTP mice; for motility in the rotarod test (latency to fall): compared to the control group and the MPTP alone treatment group, FIG. 9(a)
Protocol: (§1) Six-month-old normal mice were acclimated for one week, trained for behavioral testing, and then randomly divided into groups. To construct a Parkinson's disease mouse MPTP model, mice were treated with the chiral gamma-lactam derivative of the present disclosure or a pharmaceutically acceptable salt thereof (dissolved in 0.9% saline, intraperitoneally injected (ip)) for 3 days, and then were treated with MPTP (dissolved in 0.9% saline, ip) for 5 consecutive days. […] For the control mice group, the same volume of saline solution (ip) was provided. Two days after the last injection, the efficacy was confirmed by an open field test (OFT), forced swim test (FST), rotarod test, and pilocarpine-induced seizure evaluation.
(§2) To evaluate the walking and motor abilities of the lower extremities of mice, a rotarod test was performed for 5 weeks. Motor coordination and balance were assessed by placing the mice on a rotating bar and measuring the time until they fell therefrom (latency to fall). MPTP was injected intraperitoneally into the mice at a concentration of 30 mg/kg for 5 consecutive days. One week after the MPTP was injected, MPTP was administered to the mice intraperitoneally (15 mg/kg) twice a week. The rotarod consists of a rotatable cylindrical rod with a diameter of 7 cm, located at a height of 60 cm and six baffles spaced at 15 cm intervals. Then, mice were placed on the rod while the rod was rotated for 180 seconds at a speed of 5 to 50 rpm (maximum speed) and the latency to fall was measured. At this time, the mice were sufficiently trained to be acclimated during the experimental period.

[2] = test system: GAP-43 (Growth-associated protein-43); experiment: mRNA expression by real-time PCR in MPTP-treated SH-SY5Y cells: GAP-43; format: cell-based, human; conditions: 2.5 mM MPTP, compared to MPTP alone, FIG. 6(a)
Protocol: (§3) After inducing an inflammatory response by treating a human neuroblastoma SH-SY5Y cell line with 2.5 mM MPTP (1-methyl-4-phenyl-1,2,3,6-tetrahydropyridine), the mRNA expression of SYP (synaptophysin), GAP-43 (Growth-associated protein-43), MAO-B (Monoamine oxidase-B), and iNOS (inducible nitric oxide synthase) was confirmed by real-time PCR.

SYP (synaptophysin) = experiment: mRNA expression by real-time PCR in MPTP-treated SH-SY5Y cells: SYP; format: cell-based, human; conditions: 2.5 mM MPTP, compared to MPTP alone, FIG. 6(a)
Protocol: as §3

[3] = test system: MAO-B (Monoamine oxidase-B); experiment: mRNA expression by real-time PCR in MPTP-treated SH-SY5Y cells: MAO-B; format: cell-based, human; conditions: 2.5 mM MPTP, compared to MPTP alone, FIG. 6(a)
Protocol: as §3

SMAD2 = experiment: Human skeletal myoblast (HSKM) differentiation induction test, ELISA: SMAD2; format: cell-based; conditions: compared to (R)-phenylpiracetam treatment group, FIG. 5(a)
Protocol: (§4) For the human skeletal myoblast (HSKM) differentiation induction test, human skeletal myoblasts (3×10^5 cells/well) were prepared in 24-well plates. Then, these cells were treated with the test substances and incubated in a 37° C., CO2 incubator for 48 hours. After 24 and 48 hours of incubation, the cell culture supernatant was collected into an E-tube and stored in a deep freezer. For ELISA analysis, the supernatant was thawed and prepared. ELISA analysis was performed based on the test method presented in the ELISA kit.

[4] = test system: Parkinson's disease mouse MPTP model; experiment: Forced swim test (FST); format: in vivo; conditions: MPTP mice, FIG. 8; for immobility time in the forced swim test: ip 30 minutes before the test, compared to the MPTP alone treatment group
Protocol: as §1
The forced swim test (FST) was performed to induce depressive behavior in mice. (1) First, a 2 L beaker was filled with water (25±1° C.) until the water was about 10 cm deep, and the mouse was allowed to swim. The mouse was returned to the breeding cage after 6 minutes. (2) The restraint stress group was confined in a restraint tube for 90 minutes until 60 minutes before the forced swim test was to be performed, and then the mouse was allowed to swim as mentioned in (1). Thereafter, the mouse was returned to the breeding cage. (3) In this case, the chiral gamma-lactam derivative of the present disclosure or a pharmaceutically acceptable salt thereof (saline, test drug) was injected into the abdominal cavity 30 minutes before the forced swim test was performed. Immobility time was measured for 4 minutes out of the 6 minutes and these measurements were compared between groups.

GDF-8/Myostatin [5] = experiment: Human skeletal myoblast (HSKM) differentiation induction test, ELISA of culture supernatant: GDF-8/Myostatin; format: cell-based; conditions: compared to IGF-1 and (R)-phenylpiracetam treatment groups, FIG. 4
Protocol: as §4

[6] = test system: tibialis anterior (TA) and extensor digitorum longus (EDL) muscle; experiment: Muscle weight after the five-week rotarod test; format: in vivo; conditions: MPTP mice, after five weeks; for tibialis anterior (TA) muscle weight: FIG. 9(b); for extensor digitorum longus (EDL) muscle weight: FIG. 9(c)
Protocol: as §2

HEK293T cell line = experiment: Intracellular Ca2+ concentration by confocal laser scanning microscopy (CLSM), Fluo-3-AM; format: cell-based, human; conditions: HEK293T cells; for Ca2+ release performance: compared to the control rasagiline and the comparator (R)-phenylpiracetam, FIGS. 2 and 3
Protocol: To detect intracellular Ca^2+ levels, the HEK293T cell line, human renal epithelial cells, were seeded in 35 mm diameter confocal dishes 24 hours before the experiment and then were cultured to 40-60% confluency. The cells were loaded with […] fluorescent […] calcium indicator Fluo-3-acetoxymethyl (Fluo-3-AM; Invitrogen) for 30 min at 37° C. The concentration of Ca^2+ was determined using CLSM (Zeiss LSM 700 Meta; Zeiss, Oberkochen, Germany). […] The excitation and emission wavelengths for signal detection were 488 nm and 515 nm, respectively. Analysis of intracellular calcium intensity was performed using Zen software (Carl Zeiss).

GDF-8/Myostatin [7] = experiment: Expression of the sarcopenia-related marker GDF-8/Myostatin in mouse serum; format: in vivo; conditions: MPTP mice, 15 mg/kg ip twice a week for 5 weeks, FIG. 11; for expression level of GDF-8/Myostatin in mouse serum: compared to IGF-1 and (R)-phenylpiracetam treatment groups
Protocol: MPTP was injected intraperitoneally into the mouse at a concentration of 30 mg/kg for 5 consecutive days. One week after the MPTP was injected, the chiral gamma-lactam derivative of the present disclosure or a pharmaceutically acceptable salt thereof (Ph-10, 20, 30) was administered intraperitoneally to the mouse at a concentration of 15 mg/kg twice a week, for 5 weeks, and the changes in the expression level of GDF-8/Myostatine, a sarcopenia-related marker in mouse serum, were determined.

[8] = test system: Parkinson's disease mouse MPTP model; experiment: Open field test (OFT); format: in vivo, mice; conditions: for total distance moved in the open field test: 10 mg/kg, compared to (R)-phenylpiracetam, MPTP alone and Selegiline treatment groups
Protocol: as §1
To measure general motor activity levels and behavioral anxiety of the mice, an open field test was performed. (1) First, 30 minutes before performing the open field test, the chiral gamma-lactam derivative of the present disclosure or a pharmaceutically acceptable salt thereof and a vehicle (saline, test drug) were injected intraperitoneally to the mice and their behavior was video recorded for 10 minutes. (2) Video analysis was used to check for sedation and measure the distance the mice moved.

SMAD3 = experiment: Human skeletal myoblast (HSKM) differentiation induction test, ELISA: SMAD3; format: cell-based; conditions: compared to (R)-phenylpiracetam treatment group, FIG. 5(b)
Protocol: as §4

[9] = test system: iNOS (inducible nitric oxide synthase); experiment: mRNA expression by real-time PCR in MPTP-treated SH-SY5Y cells: iNOS; format: cell-based, human; conditions: 2.5 mM MPTP, compared to MPTP alone, FIG. 6(a)
Protocol: as §3

[10] = test system: pilocarpine-induced seizure mouse model; experiment: Evaluation of pilocarpine-induced seizures; format: in vivo; conditions: male C57BL/6J mice, 15 mg ip 25 minutes before pilocarpine 330 mg/kg, monitored for 24 hours; compared to the control group; FIG. 10
Protocol: A pilocarpine-induced seizure mouse model was created to study changes in brain activity. Pilocarpine is an agonist that binds to muscarinic cholinergic receptors in nerve cells and increases cell activity, and is used to create a mesial temporal lobe epilepsy model.
The present experiment was performed on surgically operated-on male C57BL/6J mice under a constant environmental condition (24-25° C., 50-60% humidity, 12-hour light/dark cycle). […] Pilocarpine (Sigma, Deisenhofen, Germany) was injected intraperitoneally into the mouse at a single dose of 330 mg/kg, and behavioral and electrophysiological seizure patterns were monitored for 24 hours. […]
The seizure patterns were divided into the following five types, and cases (4) and (5) were defined as convulsive seizures and analyzed for their frequency and duration: (0) no convulsive behavior; (1) facial clonus; (2) head nodding; (3) forelimb clonus; (4) rearing: animal in a standing posture aided by tail and the laterally spread hindlimbs showing increased tone; (5) rearing and falling back.

[11] = test system: human neuroblastoma SH-SY5Y cell line; experiment: Fluorescence microscopy of Ca2+ and superoxide anions in MPTP-treated SH-SY5Y cells; format: cell-based; conditions: SH-SY5Y after the MPTP treatment; FIG. 6(b)

Row | SMILES | motility in the rotarod test (latency to fall) [1] | mRNA expression of SYP (SYP (synaptophysin)) | mRNA expression of MAO-B [3] | SMAD2 level (SMAD2) | immobility time in the forced swim test [4] | GDF-8/Myostatin level (GDF-8/Myostatin [5]) | tibialis anterior (TA) muscle weight [6] | extensor digitorum longus (EDL) muscle weight [6] | Ca2+ release performance (HEK293T cell line) | expression level of GDF-8/Myostatin in mouse serum (GDF-8/Myostatin [7]) | total distance moved in the open field test ([8]; MPTP mice, ip, FIG. 7(b)) | SMAD3 level (SMAD3) | mRNA expression of iNOS [9] | total number of convulsive seizures [10] | further results
1 | NNC(=O)CN1C[C@@H](c2ccccc2)CC1=O [Ph-10, (R)-2-(2-oxo-4-phenylpyrrolidin-1-yl)acetohydrazide hydrochloride] | motility was increased | significantly increased | significantly reduced | effective performance | much shorter | performed equally or better | increased by statistically significant levels | increased by statistically significant levels | far superior | relatively lower | increased | effective performance | significantly reduced |  | mRNA expression of GAP-43 [2]: significantly increased
2 | Cl.NC(=O)CN1C[C@H](c2ccccc2)CC1=O [Ph-20, (S)-2-(2-oxo-4-phenylpyrrolidin-1-yl)acetamide hydrochloride] | motility was increased | significantly increased |  | effective performance | much shorter | performed equally or better | increased by statistically significant levels | increased by statistically significant levels | far superior | relatively lower | increased | effective performance |  | effectively reduced | 
3 | Cl.NC(=O)CN1C[C@@H](c2ccccc2)CC1=O [Ph-30, (R)-2-(2-oxo-4-phenylpyrrolidin-1-yl)acetamide hydrochloride] | motility was increased | significantly increased | significantly reduced | lowered the SMAD2 and SMAD3 levels the most | much shorter | reduced GDF-8/Myostatin level the most | increased by statistically significant levels | increased by statistically significant levels | far superior | relatively lower | increased | lowered the SMAD2 and SMAD3 levels the most | significantly reduced | significantly lower | efficacy in the rotarod test compared to the Ph-20 compound ([1]; FIG. 9): approximately twice the efficacy; Ca2+ (fluorescence microscopy) [11]: significantly increased; superoxide anions (fluorescence microscopy) [11]: significantly reduced; immobility time in the forced swim test compared to the untreated control group (saline) [4]: lower immobility time than the untreated control group; calcium release performance difference, (R)-type Ph-30 compared to (S)-type Ph-20 (HEK293T cell line): ≥ 2 times; time at which the intensity of intracellular calcium was highest (HEK293T cell line; CLSM, FIG. 1 (Ph-30)): 18 s; expression level of GDF-8/Myostatin in mouse serum, comparison among the Ph compounds (chirality) (GDF-8/Myostatin [7]): lowest expression levels; total distance moved relative to the MPTP alone treatment group ([8]; MPTP mice, ip, FIG. 7(b)): approximately three times higher; distance moved in the open field test ([8]; mice, ip, 5, 10 and 15 mg/kg, compared to the control group, FIG. 7(a)): increased compared to the control group at all concentrations
4 | NC(=O)CN1C[C@@H](c2ccccc2)CC1=O [phenylpiracetam, (R)-phenylpiracetam, reference compound] |  |  |  |  | reduced immobility time |  |  |  |  |  |  |  |  |  | 

— patent publication US20260076939A1, “CHIRAL GAMMA LACTAM DERIVATIVE OR PHARMACEUTICALLY ACCEPTABLE SALT THEREOF, AND PREPARATION METHOD THEREFOR” (Korea University Research and Business Foundation, priority 2022, published 2026)
